# Columns and labels:
# [1] = Plasma analysis and pharmacokinetics after intravaginal administration
# Procedure: The low dose of 1 mg represents the largest potential human dose on an mg/kg basis. The high dose of 20 mg represents the largest potential total human dose unadjusted for body weight.
# Pharmacokinetic parameters were determined by non-compartmental methods using Phoenix™ WinNonlin® (Version 6.3.0) Model: Plasma Data, Extravascular Administration for individual serial sample collection data (Pharsight Corporation). Area under the curve values were calculated using the linear trapezoidal rule with linear interpolation. […] Nominal sample collection time was used for the analysis unless the actual sample collection time exceeded the allowable collection window for the respective time; in which case, the actual sample collection time was used. Pharmacokinetic parameter data manipulation was performed using Excel 2010 (Microsoft Corporation).
# Pharmacokinetic parameters determined were defined as follows: • Cmax: Maximum observed concentration occurring at Tmax. Tmax: Time of maximum observed concentration. • AUC0-t: Area under the curve from the time of dosing to the time of the last observation.
# [2] = oral, cited from earlier work
# [3] = system: postmenopausal hysterectomized patients with atrophic vaginitis; assay: Pilot study of tamoxifen citrate vaginal suppository: vaginal pH; type: in vivo, human
# Procedure: (§1) Methodology. Open-label prospective cohort study. Postmenopausal women with atrophic vaginitis were confirmed by vaginal pH. At baseline, vaginal pH and measure of their subjective vaginal dryness based on a VAS vaginal dryness. Four subjects were treated with vaginal suppositories of tamoxifen citrate for three months. After eight weeks of treatment, subjects had pharmacokinetic studies of the vaginal suppository.
# (§2) Research Design. Healthy women with atrophic vaginitis were recruited to this study. To be eligible to enroll in the study, subjects underwent one screening visit. This visit was to determine the subject's vaginal pH and to measure of their subjective vaginal dryness based on a VAS. Once the subject met eligibility criteria, they received study medication.
# (§3) Subjects received supplies of the study drug every six weeks.
# (§4) Duration of Treatment. Participants were given the vaginal suppository every day for one week and then two times per week thereafter for 3 months. They were told how to insert the test drug (using the applicator, place the study drug deep into the vagina) and the dosing schedule.
# (§5) Statistical Methods. The primary endpoints are changes in the self-assessment of vaginal dryness and vaginal pH defined as the difference between the baseline and the 3-month measurements. Descriptive statistics provided for the continuous study endpoints will include mean, median, standard deviation, and 95% confidence intervals. Descriptive statistics provided for categorical endpoints will include frequencies, percents, and 95% confidence intervals. Missing values of a variable will be imputed using the last observed value for the participant. Descriptive statistics will be provided with and without imputation of missing values.
# [4] = system: postmenopausal hysterectomized patients with atrophic vaginitis; assay: Pilot study of tamoxifen citrate vaginal suppository: self-assessment of vaginal dryness (VAS); type: in vivo, human
# Procedure: as §1, §2, §3, §4, §5
# [5] = system: female rabbits; assay: 28-day intravaginal irritation study, modified Draize vaginal scoring; type: in vivo, New Zealand White rabbit
# Procedure: The testing was conducted following once daily intravaginal administration to female rabbits for 28 days to provide evaluation of the reversibility, progression, or delayed appearance of any observed changes following a 14-day postdose observation period. The animal model most commonly used to evaluate safety of vaginally administered products is the rabbit and the ovariectomized rat. However, the rabbit is considered the more sensitive model, and thus, was selected for this study.
# Assessment of toxicity and/or irritation was based on mortality, clinical observations, vaginal irritation scores, body weight, physical examinations; clinical pathology, anatomic pathology, and histopathological grading of vaginal tissues. Treatment-related microscopic findings occurred in the proximal, mid, and distal vagina.
# A total of 26 female experimentally naïve New Zealand White Hra:(NZW)SPF albino rabbits (approximately 7.5 months of age at receipt) were received from Covance Research Products, Greenfield, Ind. During the 9-day acclimation period, the animals were observed daily with respect to general health and any signs of disease.
# The vaginal region of the animals was evaluated for signs of irritation using a modified Draize scoring system as presented in the following table. Evaluations were conducted prior to each daily dose and daily during the recovery period. Any abnormalities observed during this examination were documented as a detailed clinical observation. A score of “1” or above was confirmed by a member of the veterinary staff.
# [6] = system: postmenopausal hysterectomized patients with atrophic vaginitis; conditions: 3 months of vaginal suppository, 4 patients
# Procedure: The primary efficacy endpoints were normalization of vaginal pH and improvement in vaginal dryness symptom. Safety assessments consisted of monitoring and recording all adverse events and serious adverse events. […] The blood tests were measured after 5 hours after vaginal administration.
# [7] = Day 28, 1 and 20 mg/mL groups, female rabbits
# [8] = female, New Zealand White, rabbit, in vivo
# [9] = 20 mg vaginal suppository daily for one week then twice per week, month 3, 4 subjects
# [10] = 20 mg vaginal suppository, month 3 versus enrollment, negative = decrease
# [11] = baseline before treatment, 4 subjects
smiles,measurement,setting,value
CCC(=C(c1ccc(O)cc1)c1ccc(OCCN(C)C)cc1)c1ccccc1 [4-Hydroxytamoxifen],"Ratio of high to low mean values, AUC0-t/Dose",[1]; [7],3.16
same,"Ratio of high to low mean values, Cmax/Dose",[1]; [7],4.24
same,Ratio of mean metabolite to Tamoxifen AUC0-t values,"[1]; Day 28, High Dose 20 mg/mL, female rabbits",0.148
same,Ratio of mean metabolite to Tamoxifen AUC0-t values,"[1]; Day 28, Low Dose 1 mg/mL, female rabbits",0.0702
same,"Median Tmax, range over dose groups","[1]; rabbit, in vivo",1 to 8 h
CC/C(=C(\c1ccccc1)c1ccc(OCCNC)cc1)c1ccccc1 [N-Desmethyltamoxifen],Tmax (median),"[1]; rabbit, in vivo",1 h
"CC/C(=C(\c1ccccc1)c1ccc(OCCN(C)C)cc1)c1ccccc1 [Tamoxifen, 1-(p-dimethylamino-ethoxphenyl)-2-ethyl-1,2-diphenylethylene, reference compound]","Mean AUC0-t, range over dose groups",[1]; [8],8.85 to 26.5 ng·h/mL
same,"Mean Cmax, range over dose groups",[1]; [8],0.824 to 2.33 ng/mL
same,Tmax,"[1]; female, New Zealand White, rabbit, in vivo, Median Tmax, range over dose groups",0.5 to 1 h
same,Tmax,"[1]; female, New Zealand White, rabbit, in vivo, Tmax (median)",1 h
same,time to steady state concentrations,[2]; after initiation of therapy,about 4 weeks
same,average steady state plasma concentration,[2]; once daily for 3 months,122 ng/mL
"CC/C(=C(\c1ccccc1)c1ccc(OCCN(C)C)cc1)c1ccccc1.O=C(O)CC(O)(CC(=O)O)C(=O)O [tamoxifen citrate, (Z) 2-[4-(1,2-diphenyl-1-butenyl)phenoxy]-N, N-dimethylethanamine 2-hydroxy-1,2,3-propanetricarboxylate]","pH Month 3, median",[3]; [9],5.0
same,"vaginal pH, Paired Difference enrollment to month 3, median",[3]; [10],−2.0
same,lowering of vaginal pH compared with conjugated estrogens,"[3]; after 3 months, twice per week regimen",as effective as conjugated estrogens
same,"pH Enrollment, median",[3]; [11],7.1
same,"Vaginal Dryness Month 3, median (VAS)",[4]; [9],3.0
same,"Vaginal Dryness, Paired Difference enrollment to month 3, median",[4]; [10],−5.5
same,"Vaginal Dryness Enrollment, median (VAS)",[4]; [11],8.0
same,"vaginal irritation (erythema, edema scores)","[5]; 1 and 20 mg/mL intravaginal once daily, 28 days",no test article-related vaginal irritation
same,vaginal irritation during recovery period,[5]; 14-day recovery period,no signs of vaginal irritation
same,vaginal irritation compared with vehicle control,"[5]; low and high doses (1 and 20 mg/mL), 28 days",did not appear to be any more irritating than the vehicle control
same,"drop-outs, serious adverse events, deaths",[6],"no patient drop-outs, serious adverse events, or deaths"
